# Results from ChEMBL document CHEMBL3046009, “Synthesis of piperineamino acid ester conjugates and study of their cytotoxic activities against human cancer cell lines” (Med Chem Res, 2012).
# pIC50: −log10 of the molar value. Counter-ions that a name gives are not always drawn.
# System: PC-3
# Assay: Cytotoxicity against Homo sapiens (human) PC3 cells by SRB assay
# Assay type: functional, cell-based
row,SMILES,pIC50
1,COC(=O)CNC(=O)/C=C/C=C/c1ccc2c(c1)OCO2,4.48
2,COC(=O)[C@H](C)NC(=O)/C=C/C=C/c1ccc2c(c1)OCO2,< 4.30
3,COC(=O)[C@@H](NC(=O)/C=C/C=C/c1ccc2c(c1)OCO2)C(C)C,4.31
4,CC[C@H](C)[C@H](NC(=O)/C=C/C=C/c1ccc2c(c1)OCO2)C(=O)OC,< 4.30
5,COC(=O)[C@H](CC(C)C)NC(=O)/C=C/C=C/c1ccc2c(c1)OCO2,< 4.30
6,CO[C@@]12[C@H](COC(N)=O)C3=C(C(=O)C(C)=C(N)C3=O)N1C[C@@H]1N[C@@H]12 [MITOMYCIN],5.85
7,O=C(/C=C/C=C/c1ccc2c(c1)OCO2)N1CCCCC1 [PIPERINE],< 4.30
8,COC(=O)C[C@H](NC(=O)/C=C/C=C/c1ccc2c(c1)OCO2)C(=O)OC,< 4.30
9,COC(=O)[C@H](NC(=O)/C=C/C=C/c1ccc2c(c1)OCO2)C(C)C,< 4.30
10,COC(=O)[C@H](Cc1cnc[nH]1)NC(=O)/C=C/C=C/c1ccc2c(c1)OCO2,< 4.30
11,COC(=O)[C@H](CO)NC(=O)/C=C/C=C/c1ccc2c(c1)OCO2,< 4.30

# System: IMR-32
# Assay: Cytotoxicity against Homo sapiens (human) IMR32 cells by SRB assay
# Assay type: functional, cell-based
row,SMILES,pIC50
1,COC(=O)CNC(=O)/C=C/C=C/c1ccc2c(c1)OCO2,4.30
2,COC(=O)[C@H](C)NC(=O)/C=C/C=C/c1ccc2c(c1)OCO2,< 4.30
3,COC(=O)[C@@H](NC(=O)/C=C/C=C/c1ccc2c(c1)OCO2)C(C)C,< 4.30
4,CC[C@H](C)[C@H](NC(=O)/C=C/C=C/c1ccc2c(c1)OCO2)C(=O)OC,< 4.30
5,COC(=O)[C@H](CC(C)C)NC(=O)/C=C/C=C/c1ccc2c(c1)OCO2,< 4.30
6,O=C(/C=C/C=C/c1ccc2c(c1)OCO2)N1CCCCC1 [PIPERINE],4.05
7,COC(=O)C[C@H](NC(=O)/C=C/C=C/c1ccc2c(c1)OCO2)C(=O)OC,< 4.30
8,COC(=O)[C@H](NC(=O)/C=C/C=C/c1ccc2c(c1)OCO2)C(C)C,< 4.30
9,COC(=O)[C@H](Cc1cnc[nH]1)NC(=O)/C=C/C=C/c1ccc2c(c1)OCO2,< 4.30
10,COC(=O)[C@H](CO)NC(=O)/C=C/C=C/c1ccc2c(c1)OCO2,< 4.30
11,COc1cccc2c1C(=O)c1c(O)c3c(c(O)c1C2=O)C[C@@](O)(C(=O)CO)C[C@@H]3O[C@H]1C[C@H](N)[C@H](O)[C@H](C)O1 [DOXORUBICIN HYDROCHLORIDE],7.70

# System: MCF7
# Assay: Cytotoxicity against Homo sapiens (human) MCF7 cells by SRB assay
# Assay type: functional, cell-based
row,SMILES,pIC50
1,COC(=O)CNC(=O)/C=C/C=C/c1ccc2c(c1)OCO2,4.36
2,COC(=O)[C@H](C)NC(=O)/C=C/C=C/c1ccc2c(c1)OCO2,< 4.30
3,COC(=O)[C@@H](NC(=O)/C=C/C=C/c1ccc2c(c1)OCO2)C(C)C,4.29
4,CC[C@H](C)[C@H](NC(=O)/C=C/C=C/c1ccc2c(c1)OCO2)C(=O)OC,4.32
5,COC(=O)[C@H](CC(C)C)NC(=O)/C=C/C=C/c1ccc2c(c1)OCO2,4.32
6,O=C(/C=C/C=C/c1ccc2c(c1)OCO2)N1CCCCC1 [PIPERINE],4.00
7,COC(=O)C[C@H](NC(=O)/C=C/C=C/c1ccc2c(c1)OCO2)C(=O)OC,< 4.30
8,O=c1[nH]cc(F)c(=O)[nH]1 [FLUOROURACIL],5.54
9,COC(=O)[C@H](NC(=O)/C=C/C=C/c1ccc2c(c1)OCO2)C(C)C,< 4.30
10,COC(=O)[C@H](Cc1cnc[nH]1)NC(=O)/C=C/C=C/c1ccc2c(c1)OCO2,< 4.30
11,COC(=O)[C@H](CO)NC(=O)/C=C/C=C/c1ccc2c(c1)OCO2,< 4.30
12,COc1cccc2c1C(=O)c1c(O)c3c(c(O)c1C2=O)C[C@@](O)(C(=O)CO)C[C@@H]3O[C@H]1C[C@H](N)[C@H](O)[C@H](C)O1 [DOXORUBICIN HYDROCHLORIDE],6.10

# System: HEp-2
# Assay: Cytotoxicity against Homo sapiens (human) Hep2 cells by SRB assay
# Assay type: functional, cell-based
row,SMILES,pIC50
1,COC(=O)CNC(=O)/C=C/C=C/c1ccc2c(c1)OCO2,< 4.30
2,COC(=O)[C@H](C)NC(=O)/C=C/C=C/c1ccc2c(c1)OCO2,< 4.30
3,COC(=O)[C@@H](NC(=O)/C=C/C=C/c1ccc2c(c1)OCO2)C(C)C,< 4.30
4,CC[C@H](C)[C@H](NC(=O)/C=C/C=C/c1ccc2c(c1)OCO2)C(=O)OC,< 4.30
5,COC(=O)[C@H](CC(C)C)NC(=O)/C=C/C=C/c1ccc2c(c1)OCO2,4.37
6,O=C(/C=C/C=C/c1ccc2c(c1)OCO2)N1CCCCC1 [PIPERINE],4.15
7,COC(=O)C[C@H](NC(=O)/C=C/C=C/c1ccc2c(c1)OCO2)C(=O)OC,< 4.30
8,O=c1[nH]cc(F)c(=O)[nH]1 [FLUOROURACIL],5.70
9,COC(=O)[C@H](NC(=O)/C=C/C=C/c1ccc2c(c1)OCO2)C(C)C,< 4.30
10,COC(=O)[C@H](Cc1cnc[nH]1)NC(=O)/C=C/C=C/c1ccc2c(c1)OCO2,< 4.30
11,COC(=O)[C@H](CO)NC(=O)/C=C/C=C/c1ccc2c(c1)OCO2,< 4.30

# System: DU-145
# Assay: Cytotoxicity against Homo sapiens (human) DU145 cells by SRB assay
# Assay type: functional, cell-based
row,SMILES,pIC50
1,COC(=O)CNC(=O)/C=C/C=C/c1ccc2c(c1)OCO2,4.31
2,COC(=O)[C@H](C)NC(=O)/C=C/C=C/c1ccc2c(c1)OCO2,4.29
3,COC(=O)[C@@H](NC(=O)/C=C/C=C/c1ccc2c(c1)OCO2)C(C)C,4.36
4,CC[C@H](C)[C@H](NC(=O)/C=C/C=C/c1ccc2c(c1)OCO2)C(=O)OC,< 4.30
5,COC(=O)[C@H](CC(C)C)NC(=O)/C=C/C=C/c1ccc2c(c1)OCO2,< 4.30
6,CO[C@@]12[C@H](COC(N)=O)C3=C(C(=O)C(C)=C(N)C3=O)N1C[C@@H]1N[C@@H]12 [MITOMYCIN],5.74
7,O=C(/C=C/C=C/c1ccc2c(c1)OCO2)N1CCCCC1 [PIPERINE],< 4.30
8,COC(=O)C[C@H](NC(=O)/C=C/C=C/c1ccc2c(c1)OCO2)C(=O)OC,4.34
9,COC(=O)[C@H](NC(=O)/C=C/C=C/c1ccc2c(c1)OCO2)C(C)C,< 4.30
10,COC(=O)[C@H](Cc1cnc[nH]1)NC(=O)/C=C/C=C/c1ccc2c(c1)OCO2,4.68
11,COC(=O)[C@H](CO)NC(=O)/C=C/C=C/c1ccc2c(c1)OCO2,< 4.30

# System: COLO 205
# Assay: Cytotoxicity against Homo sapiens (human) COLO205 cells by SRB assay
# Assay type: functional, cell-based
row,SMILES,pIC50
1,COC(=O)CNC(=O)/C=C/C=C/c1ccc2c(c1)OCO2,< 4.30
2,COC(=O)[C@H](C)NC(=O)/C=C/C=C/c1ccc2c(c1)OCO2,< 4.30
3,COC(=O)[C@@H](NC(=O)/C=C/C=C/c1ccc2c(c1)OCO2)C(C)C,< 4.30
4,CC[C@H](C)[C@H](NC(=O)/C=C/C=C/c1ccc2c(c1)OCO2)C(=O)OC,< 4.30
5,COC(=O)[C@H](CC(C)C)NC(=O)/C=C/C=C/c1ccc2c(c1)OCO2,4.26
6,O=C(/C=C/C=C/c1ccc2c(c1)OCO2)N1CCCCC1 [PIPERINE],4.34
7,COC(=O)C[C@H](NC(=O)/C=C/C=C/c1ccc2c(c1)OCO2)C(=O)OC,< 4.30
8,O=c1[nH]cc(F)c(=O)[nH]1 [FLUOROURACIL],5.54
9,COC(=O)[C@H](NC(=O)/C=C/C=C/c1ccc2c(c1)OCO2)C(C)C,4.29
10,COC(=O)[C@H](Cc1cnc[nH]1)NC(=O)/C=C/C=C/c1ccc2c(c1)OCO2,< 4.30
11,COC(=O)[C@H](CO)NC(=O)/C=C/C=C/c1ccc2c(c1)OCO2,4.44
